For assay [1], the system named is coronary artery diameter. Nature of the assay: Coronary Artery Diameter Increasing Action in anesthetized dogs. It counts as in vivo, adult mongrel dogs. Conditions: for Coronary artery diameter (relative to nitroglycerin): maximal change as ratio to 10 μg/kg nitroglycerin. As to the method:
(§1) Adult mongrel dogs were thoracotomized under anesthesia with α-chloralose and the circumflex branch of the left coronary artery was […]; a pair of ultrasonic crystals were attached to the tunica extima for measuring the diameter of the coronary artery whereas an electromagnetic flow probe was attached to the peripheral side to measure the coronary blood flow. Nitroglycerin, dipyridamole and each test compound were administered intravenously for comparison. Each test compound was dissolved in dimethylformamide and diluted sequentially with polyethylene glycol 200 and water to give respective proportions of 20, 50 and 30% (v/v). The results are shown in Table 3, in which the maximal changes in the diameter of the coronary artery and the coronary blood flow are expressed in terms of the ratio to the respective changes caused by 10 μg/kg of nitroglycerin.

The test system of assay [2] is coronary blood flow. The experiment in a line: Coronary blood flow in anesthetized dogs. Format: in vivo, adult mongrel dogs. To be noted: maximal change as ratio to 10 μg/kg nitroglycerin. As to the method:
as §1

The test system of assay [3] is PDE type I. Nature of the assay: PDE Inhibiting Activity, type I. Format: biochemical, dog (canine aorta). To be noted: PDE type I from canine aorta, 1 μM substrate, pH 7.5; read-out: Inhibition Activity IC50, Type I. Here is the method:
(§2) On the basis of the method of Lugnier et al. (Biochem. Pharmacol., 35, 1743-1751, 1986), PDE was purified from the aorta in a dog. The canine aorta was minced and homogenized with a Waring Blender and a glass homogenizer in six volumes of a Tris-HCl buffer solution (pH 7.5, 20 mM) containing 2 mM magnesium acetate, 5 mM ethylenediaminetetraacetic acid (EDTA), 100 μg/mL of phenylmethylsulforyl fluoride and 15 mM 2-mercaptoethanol (2-ME), and centrifuged at 1200 xg for 30 min. The supernatant was separated and salted out with ammonium sulfate which was added to 45% saturation. The resulting precipitated fraction was resuspended in a Tris-HCl buffer solution (pH 7.5, 20 mM) containing 2 mM magnesium acetate and 1 mM 2-ME, dialyzed overnight and applied to a DEAE-trisacryl column (DEAE […] M:IBF). By elution with a sodium chloride gradient (0-0.4 M), PDE types V and III were separated from the other isozymes. The supernatant fraction of 45% saturated ammonium sulfate was further mixed with ammonium sulfate to 65% saturation and salted out. The resulting precipitated fraction was similarly applied to the DEAE-trisacryl column and eluted by a sodium chloride gradient (0-0.4 M) so as to separate PDE type I.
(§3) The thus obtained PDE types V, III and I were measured for their activity in accordance with the method of Thompson et al. (Adv. Cyclic Nucleotide Res., 10, 69-72, 1979) and the method of Wells et al. (Biochim. Biophys. Acta, 384, 430-443, 1975). Specifically, a purified PDE sample was added to 50 mM Tris-HCl buffer solution (pH 7.5) containing 1 μM of substrate cGMP or cAMP (containing tritium-labelled cGMP or cAMP), 1 mM EGTA and 2 mM magnesium acetate. For PDE activity measurement, enzymatically produced 5' GMP or 5' AMP was further hydrolyzed into guanosine or adenosine with snake venom and separated from the substrate by means of an ion-exchange resin (Dowex 1-X2), followed by measuring with a scintillation counter. The activity of each test compound was determined as a percentage of the DPE activity measured when it was added as a dimethyl sulfoxide solution (DMSO) and its IC50 (50% inhibition concentration) was calculated by the probit method. The final concentration of DMSO was adjusted to be no more than 2% in consideration of the effect on PDE activity.

In assay [4] the target is T1, PDE type V (Canis lupus familiaris, UniProt O77746).
T1 construct: PDE was purified from the aorta in a dog; from tissue; host or cells: dog aorta
Nature of the assay: PDE Inhibiting Activity, type V (cGMP-PDE). Format: biochemical, dog (canine aorta). To be noted: PDE type V from canine aorta, 1 μM substrate, pH 7.5; read-out: Inhibition Activity IC50, Type V. As to the method: as §2
The thus obtained PDE types V, III and I were measured for their activity in accordance with the method of Thompson et al. (Adv. Cyclic Nucleotide Res., 10, 69-72, 1979) and the method of Wells et al. (Biochim. Biophys. Acta, 384, 430-443, 1975). Specifically, a purified PDE sample was added to 50 mM Tris-HCl buffer solution (pH 7.5) containing 1 μM of substrate cGMP or cAMP (containing tritium-labelled cGMP or cAMP), 1 mM EGTA and 2 mM magnesium acetate. […] The activity of each test compound was determined as a percentage of the DPE activity measured when it was added as a dimethyl sulfoxide solution (DMSO) and its IC50 (50% inhibition concentration) was calculated by the probit method. […]

Assay [5] has as its target T2, PDE type III (Canis lupus familiaris, UniProt A0A8I3NYE0).
T2 construct: PDE was purified from the aorta in a dog; from tissue; host or cells: dog aorta
T2 sequence (A0A8I3NYE0 1-1135): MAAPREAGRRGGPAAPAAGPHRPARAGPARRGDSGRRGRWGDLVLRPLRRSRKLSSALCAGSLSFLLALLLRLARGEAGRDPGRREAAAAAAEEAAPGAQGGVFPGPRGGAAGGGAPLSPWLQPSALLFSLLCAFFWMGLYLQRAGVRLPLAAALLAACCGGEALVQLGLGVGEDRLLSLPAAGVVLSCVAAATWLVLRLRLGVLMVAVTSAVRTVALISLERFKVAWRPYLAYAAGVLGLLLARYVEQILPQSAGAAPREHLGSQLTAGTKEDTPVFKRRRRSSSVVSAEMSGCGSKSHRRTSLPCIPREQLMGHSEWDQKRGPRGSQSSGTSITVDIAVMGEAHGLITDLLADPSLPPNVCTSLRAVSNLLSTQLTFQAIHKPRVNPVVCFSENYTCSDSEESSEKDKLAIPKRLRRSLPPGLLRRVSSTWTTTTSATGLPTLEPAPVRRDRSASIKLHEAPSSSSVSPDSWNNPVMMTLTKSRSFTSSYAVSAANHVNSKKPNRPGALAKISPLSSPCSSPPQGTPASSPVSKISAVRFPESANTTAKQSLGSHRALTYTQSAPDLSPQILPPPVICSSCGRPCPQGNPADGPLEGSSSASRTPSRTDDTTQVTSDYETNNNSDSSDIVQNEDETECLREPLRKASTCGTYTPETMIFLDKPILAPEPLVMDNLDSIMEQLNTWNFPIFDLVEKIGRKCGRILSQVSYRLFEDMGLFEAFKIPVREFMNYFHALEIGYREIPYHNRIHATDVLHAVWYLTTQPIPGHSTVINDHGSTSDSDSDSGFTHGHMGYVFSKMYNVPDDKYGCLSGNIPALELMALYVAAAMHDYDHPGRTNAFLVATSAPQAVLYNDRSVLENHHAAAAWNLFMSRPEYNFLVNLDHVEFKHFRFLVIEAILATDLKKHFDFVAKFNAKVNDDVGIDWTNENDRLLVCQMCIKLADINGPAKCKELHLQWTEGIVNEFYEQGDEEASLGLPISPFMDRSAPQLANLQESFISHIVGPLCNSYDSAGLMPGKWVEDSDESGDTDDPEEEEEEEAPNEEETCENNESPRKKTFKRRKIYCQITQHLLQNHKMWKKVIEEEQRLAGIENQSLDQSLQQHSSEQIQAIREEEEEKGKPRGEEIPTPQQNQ
The experiment in a line: PDE Inhibiting Activity, type III. Format: biochemical, dog (canine aorta). Here is the method:
as §2, §3

Assay [6] relates to vascular smooth muscle cells isolated from aortic media. Conditions: Garg et al. 1989; Nakaki et al. 1990; cited from earlier work.
In assay [7] the test system is systemic blood pressure. Nature of the assay: Systemic blood (aortic) pressure lowering in anesthetized dogs. It counts as in vivo, adult mongrel dogs. To be noted: Canis lupus familiaris, iv, read-out: Reduction in systemic blood pressure; for inhibition in vivo at 0.3 mg/kg: 0.3 mg/kg intravenous, anesthetized dogs, maximal percent decrease. Here is the method:
(§4) Adult mongrel dogs were anesthetized by intramuscular administration of 20 mg/kg of ketamine and intravenous administration of 20 mL/kg of physiological saline containing 5 mg/mL of α-chloralose; under artificial respiration, the aortic pressure was measured with a catheter inserted into the femoral artery and the pulmonary arterial pressure with a Swan-Ganz catheter inserted into the pulmonary artery. Anesthesia was maintained by intravenous administration of physiological saline containing 5 mg/mL of α-chloralose at a rate of 5 mL/kg per hour. Comparison was made between nitroglycerin, nifedipine and test compounds which were administered intravenously at doses of 0.01-1 mg/kg. Each test compound was dissolved in dimethylformamide (DMF) and sequentially diluted with polyethylene glycol 200 and water to give respective proportions of 20, 50 and 30% (v/v) and administrated by injection into the right femoral vein in a volume of 0.3 mL/kg. The results are shown in Table 2 below, in which maximal percent decreases in the pulmonary arterial pressure and aortic pressure are listed to show the effectiveness of each test compound in lowering the pulmonary arterial pressure and the systemic blood pressure, respectively.

Assay [8] deals with pulmonary arterial pressure. Nature of the assay: Pulmonary Arterial Pressure Lowering Action in anesthetized dogs. To be noted: for inhibition in vivo at 0.3 mg/kg: 0.3 mg/kg intravenous, maximal percent decrease. Format: in vivo, adult mongrel dogs. As to the method:
as §4

The mark [9] stands for this setting: PDE type III from canine aorta, 1 μM substrate, pH 7.5, read-out: Inhibition Activity IC50, Type III.
Where [10] appears, read: Canis lupus familiaris, iv, anesthetized dogs, read-out: Reduction in pulmonary arterial pressure.

Structures can show the parent of a compound that is named as a salt. Where two headings read alike, the source gives them in different places.

On to `OCCN(CCO)c1nc(N2CCCCC2)c2nc(N(CCO)CCO)nc(N3CCCCC3)c2n1` [Dipyridamole, dipyridamole, reference compound], for which, in assay [1] (0.03 mg/kg intravenous), the “Coronary artery diameter (relative to nitroglycerin)” value is 0.17. In assay [1] (intravenous, anesthetized dogs), the “coronary artery diameter versus coronary blood flow (in words)” value is recorded as “increased more of the coronary blood flow than the coronary artery diameter”. Moreover, the “Coronary blood flow (relative to nitroglycerin)” value in assay [2] (0.03 mg/kg intravenous) stood at 2.66.

Consider `CCCOC(=O)COc1cc2c(=O)c(Cc3cccnc3)cn3c4ccc(Br)cc4c(c1)c23` [Example 7, 10-bromo-2-n-propoxycarbonylmethyloxy-5-(3-pyridylmethyl)-4H-pyrido [3,2,1-jk]carbazole-4-one], for which the IC50 was > 30 µM in assay [3], 0.0043 µM in assay [4] and > 30 µM in assay [5] (setting [9]).

As for `Nc1nc2c(nc(Br)n2[C@@H]2O[C@@H]3COP(=O)(O)O[C@H]3[C@H]2O)c(=O)[nH]1` [Example 8-bromo-cGMP, 8-bromo-cGMP], the “proliferation of cultured vascular smooth muscle cells (in words)” value in assay [6] is on record as “suppressed”.

As to `O=C(COc1cc2c(=O)c(Cc3cccnc3)cn3c4ccc(Br)cc4c(c1)c23)OC1CCCCC1` [Example 15], the IC50 in assay [3] is > 30 µM; in assay [4], 0.045 µM; in assay [5] (setting [9]), 15 µM.

Consider `CCNC(=O)COc1cc2c(=O)c(Cc3cccnc3)cn3c4cc(Br)ccc4c(c1)c23` [Example 109, 9-bromo-2-(N-ethylcarbamoylmethyloxy)-5-(3-pyridylmethyl)-4H-pyrido [3,2,1-jk]carbazole-4-one], for which the inhibition in vivo at 0.3 mg/kg in assay [7] was 11%; in assay [8] (setting [10]), 19%. Moreover, the IC50 was > 30 µM in assay [3] and 14 µM in assay [5].

For `O=c1c(Cc2cccnc2)cn2c3cc(Br)ccc3c3cc(OCCCO)cc1c32` [Example 110, 9-bromo-2-(3-hydroxypropyloxy)-5-(3-pyridylmethyl)-4H-pyrido [3,2,1-jk]carbazole-4-one], the inhibition in vivo at 0.3 mg/kg in assay [7] amounted to 7%; in assay [8] (setting [10]) it was 23%. Also, the IC50 in assay [3] was > 30 µM; in assay [5] (setting [9]), 10 µM.

Turning to `O=c1c(Cc2cccnc2)cn2c3ccccc3c3cc(O)cc1c32` [Example 155], the “Coronary artery diameter (relative to nitroglycerin)” value in assay [1] (1 mg/kg intravenous) is on record as 1.47. For the same compound, the IC50 came to 48 µM in assay [3] and 7.3 µM in assay [5] (setting [9]). For the same compound, in assay [2] (1 mg/kg intravenous), the “Coronary blood flow (relative to nitroglycerin)” value was determined as 0.79.

With `O=c1ccn2c3ccc(Cl)cc3c3cccc1c32` [Example 193, 10-chloro-4H-pyrido[3,2,1-jk]carbazole-4-one], the figures for the inhibition in vivo at 0.3 mg/kg in assay [7] and in assay [8] (setting [10]) were 1% and 16%, respectively. Further, the “Coronary artery diameter (relative to nitroglycerin)” value in assay [1] (1 mg/kg intravenous) came to 1.44. Also, the figures for the IC50 in assay [3] and in assay [5] (setting [9]) were > 100 µM and 6.9 µM, respectively. For the same compound, the “Coronary blood flow (relative to nitroglycerin)” value in assay [2] (1 mg/kg intravenous) was 1.40.

Regarding `O=c1ccn2c3ccc(Cl)cc3c3cc(Cl)cc1c32` [Example 264, 2,10-dichlor-4H-pyrido[3,2,1-jk]carbazole-4-one], the figures for the concentration for half-maximal inhibition (IC50) in assay [3], in assay [4] and in assay [5] (setting [9]) were > 30 µM, 0.08 µM and > 30 µM, respectively.

On to `O=c1c(Cc2cccnc2)cn2c3cc(Br)ccc3c3cc(OCCCO)cc1c32` [Example 278, 9-bromo-2-(3-hydroxyoropyloxy)-5-(3-pyridylmethyl)-4H-pyrido[3,2,1-jk]carbazole-4-one hydrochloride], for which the “Coronary artery diameter (relative to nitroglycerin)” value in assay [1] (1 mg/kg intravenous) stood at 1.50. The “Coronary blood flow (relative to nitroglycerin)” value in assay [2] (1 mg/kg intravenous) is reported as 0.04.

As for `O=[N+]([O-])OCC(CO[N+](=O)[O-])O[N+](=O)[O-]` [Nitroglycerin, nitroglycerin, reference compound], the inhibition in vivo at 0.01 mg/kg in assay [7] was 30%; in assay [8] (Canis lupus familiaris, iv, read-out: Reduction in pulmonary arterial pressure), 19%. Further, in assay [8] (intravenous, anesthetized dogs), the “pulmonary arterial versus systemic blood pressure lowering (in words)” value is reported as “lowered the systemic blood pressure by greater degrees than the pulmonary arterial pressure”. In addition, the “proliferation of cultured vascular smooth muscle cells (in words)” value in assay [6] is recorded as “suppressed”.

(Values after patent publication US6197768A, “Pyridocarbazole derivatives having cgmp-pde inhibitory activity” (Mochida Pharmaceutical Co., Ltd., priority 1996, dated 2001).)
